In US20080234262A1 (Wyeth, priority 2007, published 2008):

What was measured:
[1] = tested on: prostate line LNCap; experiment: In vitro cell culture growth assay (MTS), LNCap; assay type: cell-based, human; settings: Homo sapiens, LNCaP, 72 h, LNCap cells, three days after drug treatment
[2] = target: PI3K (Homo sapiens, UniProt P42336); experiment: Fluorescence polarization assay for PI3K; assay type: biochemical; settings: PI3Kα; read-out: PI3Kα IC50;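 further: PI3K kinase reaction on PIP2 with ATP, 30-60 min, product sensed by GST-GRP with red probe in fluorescence polarization (mP), controls without enzyme and at zero time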
Sequence of PI3K (P42336 whole entry): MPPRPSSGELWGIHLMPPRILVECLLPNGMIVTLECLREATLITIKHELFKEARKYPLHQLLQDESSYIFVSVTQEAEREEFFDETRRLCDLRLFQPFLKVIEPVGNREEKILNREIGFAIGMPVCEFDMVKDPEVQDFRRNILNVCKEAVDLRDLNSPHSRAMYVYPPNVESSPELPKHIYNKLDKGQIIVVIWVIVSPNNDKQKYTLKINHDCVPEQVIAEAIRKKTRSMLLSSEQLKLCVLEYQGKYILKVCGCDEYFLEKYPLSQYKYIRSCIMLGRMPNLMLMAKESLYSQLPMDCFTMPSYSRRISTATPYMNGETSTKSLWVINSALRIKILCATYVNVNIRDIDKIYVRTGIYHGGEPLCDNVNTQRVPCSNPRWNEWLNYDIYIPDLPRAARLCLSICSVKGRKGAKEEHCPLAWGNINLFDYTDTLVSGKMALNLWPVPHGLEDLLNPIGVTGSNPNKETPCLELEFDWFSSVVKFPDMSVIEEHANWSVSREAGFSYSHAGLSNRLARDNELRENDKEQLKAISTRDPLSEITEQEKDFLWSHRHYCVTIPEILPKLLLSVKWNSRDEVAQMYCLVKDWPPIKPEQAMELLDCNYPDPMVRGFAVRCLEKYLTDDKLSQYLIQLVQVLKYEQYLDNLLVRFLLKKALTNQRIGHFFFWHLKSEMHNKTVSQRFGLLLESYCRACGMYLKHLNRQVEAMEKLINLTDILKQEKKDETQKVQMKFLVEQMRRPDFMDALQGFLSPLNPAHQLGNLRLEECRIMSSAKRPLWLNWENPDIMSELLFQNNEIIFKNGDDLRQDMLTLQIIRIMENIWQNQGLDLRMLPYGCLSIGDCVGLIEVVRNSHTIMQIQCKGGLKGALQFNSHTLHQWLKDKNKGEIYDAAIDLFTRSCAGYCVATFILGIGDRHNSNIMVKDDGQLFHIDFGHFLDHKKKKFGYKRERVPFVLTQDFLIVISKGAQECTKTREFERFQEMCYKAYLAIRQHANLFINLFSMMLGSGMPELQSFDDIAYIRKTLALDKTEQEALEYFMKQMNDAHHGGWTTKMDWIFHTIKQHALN
Sequence of PI3K (P27986 whole entry partner): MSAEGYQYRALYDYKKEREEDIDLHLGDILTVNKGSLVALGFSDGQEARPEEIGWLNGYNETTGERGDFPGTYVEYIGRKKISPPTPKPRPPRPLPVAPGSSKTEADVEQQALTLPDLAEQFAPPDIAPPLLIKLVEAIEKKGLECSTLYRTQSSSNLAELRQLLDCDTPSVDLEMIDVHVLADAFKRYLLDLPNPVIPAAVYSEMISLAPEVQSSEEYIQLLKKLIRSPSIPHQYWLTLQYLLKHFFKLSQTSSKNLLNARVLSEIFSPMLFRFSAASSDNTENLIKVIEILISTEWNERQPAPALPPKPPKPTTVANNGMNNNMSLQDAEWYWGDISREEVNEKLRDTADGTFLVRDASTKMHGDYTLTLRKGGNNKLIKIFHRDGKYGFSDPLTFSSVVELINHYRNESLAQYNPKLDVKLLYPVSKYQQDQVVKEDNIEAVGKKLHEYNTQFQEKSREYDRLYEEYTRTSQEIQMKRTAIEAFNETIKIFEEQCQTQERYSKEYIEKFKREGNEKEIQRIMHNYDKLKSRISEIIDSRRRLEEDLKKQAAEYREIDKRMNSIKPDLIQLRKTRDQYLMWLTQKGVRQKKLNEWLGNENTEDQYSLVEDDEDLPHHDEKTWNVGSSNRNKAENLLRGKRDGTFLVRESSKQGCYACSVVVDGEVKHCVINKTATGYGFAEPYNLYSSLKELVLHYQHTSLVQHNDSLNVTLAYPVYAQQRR

[3] = tested on: breast line MDA468; experiment: In vitro cell culture growth assay (MTS), MDA468; assay type: cell-based, human; settings: Homo sapiens, 72 h, MDA468 cells, three days after drug treatment
In short: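 MDA468 or LNCap cells received inhibitors one day after plating and were grown for three days. Viable cell density read by MTS conversion, absorbance 490 nm, expressed as percent of control growth versus vehicle-treated cells on the same plate.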

| IC50 [1] [nM] | IC50 [2] [nM] | Structure (SMILES) | IC50 [3] [nM] |
| --- | --- | --- | --- |
| 1800 | 404 | CONC(=O)Nc1ccc(-c2nc(N3CCOCC3)c3cnn(-c4ccccc4)c3n2)cc1 [Compound 541, 1-methoxy-3-[4-(4-morpholin-4-yl-1-phenyl-1H-pyrazolo[3,4-d]pyrimidin-6-yl)phenyl]urea] | 5000 |
| 170 | 42 | CNC(=O)Nc1ccc(-c2nc(N3CCOCC3)c3cnn(C4CCN(C(=S)NC)CC4)c3n2)cc1 [Compound 760, N-methyl-4-(6-{4-[(methylcarbamoyl)amino]phenyl}-4-morpholin-4-yl-1H-pyrazolo[3,4-d]pyrimidin-1-yl)piperidine-1-carbothioamide] | 50 |
| 800 | 3750 | COCC(=O)N1CCC(n2ncc3c(N4CCOCC4)nc(-c4ccc5[nH]ccc5c4)nc32)CC1 [Example 40] | 900 |
| 200 | 209 | CNC(=O)Nc1ccc(-c2nc(N3CCOCC3)c3cnn(C4CCN(C(=O)N(C)C)CC4)c3n2)cc1 [Example 473, N,N-dimethyl-4-(6-{4-[(methylcarbamoyl)amino]phenyl}-4-morpholin-4-yl-1H-pyrazolo[3,4-d]pyrimidin-1-yl)piperidine-1-carboxamide] | 500 |
| 2900 | 131 | O=C(Nc1ccc(-c2nc(N3CCOCC3)c3cnn(-c4ccccc4)c3n2)cc1)C1CCNCC1 [Compound 140] | 1300 |
| 27 | 56 | CNC(=O)Nc1ccc(-c2nc(N3CCOCC3)c3cnn(C4CCC(=O)CC4)c3n2)cc1 [Example 322, 1-methyl-3-{4-[4-morpholin-4-yl-1-(4-oxocyclohexyl)-1H-pyrazolo[3,4-d]pyrimidin-6-yl]phenyl}urea] | 200 |
| 34 | 10 | O=C(Nc1ccc(-c2nc(N3CCOCC3)c3cnn(C4CCN(Cc5cccnc5)CC4)c3n2)cc1)Nc1ccsc1 [Compound 375, 1-(4-{4-morpholin-4-yl-1-[1-(pyridin-3-ylmethyl)piperidin-4-yl]-1H-pyrazolo[3,4-d]pyrimidin-6-yl}phenyl)-3-(3-thienyl)urea] | 100 |
| < 18.5 | 47 | CNC(=O)Nc1ccc(-c2nc(N3CCOCC3)c3cnn(C4CCSCC4)c3n2)cc1 [Compound 867, 1-methyl-3-{4-[4-morpholin-4-yl-1-(tetrahydro-2H-thiopyran-4-yl)-1H-pyrazolo[3,4-d]pyrimidin-6-yl]phenyl}urea] | < 68.5 |
| 480 | 211 | O=C(NO)Nc1ccc(-c2nc(N3CCOCC3)c3cnn(-c4ccccc4)c3n2)cc1 [Example 293, 1-hydroxy-3-[4-(4-morpholin-4-yl-1-phenyl-1H-pyrazolo[3,4-d]pyrimidin-6-yl)phenyl]urea] | 1100 |

The remaining lines, values behind:

| Structure (SMILES) | IC50 [1] [nM] | IC50 [2] [nM] | IC50 [3] [nM] |
| --- | --- | --- | --- |
| CNC(=O)Nc1ccc(-c2nc(N3CCOCC3)c3cnn(C4CCN(C(=O)c5ccc(Cl)cc5)CC4)c3n2)cc1 [Compound 608, 1-(4-{1-[1-(4-chlorobenzoyl)piperidin-4-yl]-4-morpholin-4-yl-1H-pyrazolo[3,4-d]pyrimidin-6-yl}phenyl)-3-methylurea] | 52 | 42 | 400 |
| O=C(NCCO)Nc1ccc(-c2nc(N3CCOCC3)c3cnn(CC(F)(F)F)c3n2)cc1 [Compound 791, 1-(2-hydroxyethyl)-3-{4-[4-morpholin-4-yl-1-(2,2,2-trifluoroethyl)-1H-pyrazolo[3,4-d]pyrimidin-6-yl]phenyl}urea] | 220 | 136 | 260 |
| COC(=O)N1CCC(n2ncc3c(N4CCOCC4)nc(-c4ccc(NC(=O)Nc5ccc(CCN6CCNCC6)cc5)cc4)nc32)CC1 [Compound 916, methyl 4-{4-morpholin-4-yl-6-[4-({[4-(2-piperazin-1-ylethyl)phenyl]carbamoyl}amino)phenyl]-1H-pyrazolo[3,4-d]pyrimidin-1-yl}piperidine-1-carboxylate] | 1.3 | 20 | 110 |
| O=C(Nc1ccc(-c2nc(N3CCOCC3)c3cnn(C4CCN(C(=O)OCc5ccccc5)CC4)c3n2)cc1)Nc1cccnc1 [Compound 881, benzyl 4-(4-morpholin-4-yl-6-{4-[(pyridin-3-ylcarbamoyl)amino]phenyl}-1H-pyrazolo[3,4-d]pyrimidin-1-yl)piperidine-1-carboxylate] | 60 | 7 | 300 |
| CC(C)OC(=O)N1CCC(n2ncc3c(N4CCOCC4)nc(-c4ccc(NC(=O)Nc5ccncc5)cc4)nc32)CC1 [Compound 839, isopropyl 4-(4-morpholin-4-yl-6-{4-[(pyridin-4-ylcarbamoyl)amino]phenyl}-1H-pyrazolo[3,4-d]pyrimidin-1-yl)piperidine-1-carboxylate] | 27 | 37 | 68 |
| c1cc2cc(-c3nc(N4CCOCC4)c4cnn(CCN5CCNCC5)c4n3)ccc2[nH]1 [Compound 162, 6-(1H-indol-5-yl)-4-morpholin-4-yl-1-(2-piperazin-1-ylethyl)-1H-pyrazolo[3,4-d]pyrimidine] | 33000 | 1850 | 60000 |
| CNC(=O)Nc1ccc(-c2nc(N3CCOCC3)c3cnn(C4CCN(Cc5ccccc5C)CC4)c3n2)cc1 [Example 429, 1-methyl-3-(4-{1-[1-(2-methylbenzyl)piperidin-4-yl]-4-morpholin-4-yl-1H-pyrazolo[3,4-d]pyrimidin-6-yl}phenyl)urea] | 40 | 51 | 200 |
| O=C(Nc1ccccc1)Nc1ccc(-c2nc(N3CCOCC3)c3cnn(C4CCN(C(=O)c5ccccc5)CC4)c3n2)cc1 [Compound 623, 1-{4-[1-(1-benzoylpiperidin-4-yl)-4-morpholin-4-yl-1H-pyrazolo[3,4-d]pyrimidin-6-yl]phenyl}-3-phenylurea] | < 27 | 16 | 50 |
| O=C(NCCF)Nc1ccc(-c2nc(N3CCOCC3)c3cnn(-c4ccccc4)c3n2)cc1 [Example 294, 1-(2-fluoroethyl)-3-[4-(4-morpholin-4-yl-1-phenyl-1H-pyrazolo[3,4-d]pyrimidin-6-yl)phenyl]urea] | 190 | 251 | 900 |
| CNC(=O)Nc1ccc(-c2nc(N3CCOCC3)c3cnn([C@@H]4CCCN(C(=O)OC(C)(C)C)C4)c3n2)cc1 [Compound 874, tert-butyl (3R)-3-(6-{4-[(methylcarbamoyl)amino]phenyl}-4-morpholin-4-yl-1H-pyrazolo[3,4-d]pyrimidin-1-yl)piperidine-1-carboxylate] | 400 | 294 | 1100 |
| O=C(Nc1ccncc1)Nc1ccc(-c2nc(N3CCOCC3)c3cnn(C4CCN(C(=O)c5cccnc5)CC4)c3n2)cc1 [Compound 591, 1-(4-{4-morpholin-4-yl-1-[1-(pyridin-3-ylcarbonyl)piperidin-4-yl]-1H-pyrazolo[3,4-d]pyrimidin-6-yl}phenyl)-3-pyridin-4-ylurea] | 27 | 15 | < 27 |
| CC#CCOC(=O)N1CCC(n2ncc3c(N4CCOCC4)nc(-c4ccc(NC(=O)NC)cc4)nc32)CC1 [Compound 801, but-2-yn-1-yl 4-(6-{4-[(methylcarbamoyl)amino]phenyl}-4-morpholin-4-yl-1H-pyrazolo[3,4-d]pyrimidin-1-yl)piperidine-1-carboxylate] | 31 | 50 | 120 |
| O=C(Nc1ccc(-c2nc(N3CCOCC3)c3cnn(C4CCN(Cc5cccnc5)CC4)c3n2)cc1)Nc1cccnc1 [Compound 559, 1-(4-{4-morpholin-4-yl-1-[1-(pyridin-3-ylmethyl)piperidin-4-yl]-1H-pyrazolo[3,4-d]pyrimidin-6-yl}phenyl)-3-pyridin-3-ylurea] | < 27 | 20 | < 27 |
| CNC(=O)Nc1ccc(-c2nc(N3CCOCC3)c3cnn([C@H]4CCCNC4)c3n2)cc1 [Compound 873, 1-methyl-3-(4-{4-morpholin-4-yl-1-[(3S)-piperidin-3-yl]-1H-pyrazolo[3,4-d]pyrimidin-6-yl}phenyl)urea] | 410 | 74 | 730 |
| CCCOC(=O)N1CCC(n2ncc3c(N4CCOCC4)nc(-c4ccc(NC(=O)Nc5cccnc5)cc4)nc32)CC1 [Compound 850, propyl 4-(4-morpholin-4-yl-6-{4-[(pyridin-3-ylcarbamoyl)amino]phenyl}-1H-pyrazolo[3,4-d]pyrimidin-1-yl)piperidine-1-carboxylate] | < 27 | 38 | 120 |
| COC(=O)N1CCC(n2ncc3c(N4CCOCC4)nc(-c4ccc(NC(=O)Nc5ccc(CCNCCN)cc5)cc4)nc32)CC1 [Compound 920, methyl 4-[6-(4-{[(4-{2-[(2-aminoethyl)amino]ethyl}phenyl)carbamoyl]amino}phenyl)-4-morpholin-4-yl-1H-pyrazolo[3,4-d]pyrimidin-1-yl]piperidine-1-carboxylate] | 0.8 | 4 | 300 |
| O=C(NCCF)Nc1ccc(-c2nc(N3CCOCC3)c3cnn(C4CCN(C(=O)c5cccnc5)CC4)c3n2)cc1 [Example 303, 1-(2-fluoroethyl)-3-(4-{4-morpholin-4-yl-1-[1-(pyridin-3-ylcarbonyl)piperidin-4-yl]-1H-pyrazolo[3,4-d]pyrimidin-6-yl}phenyl)urea] | 630 | 541 | 500 |
| OC1CCC(n2ncc3c(N4CCOCC4)nc(-c4ccc5[nH]ccc5c4)nc32)CC1 (stereo not drawn) [Compound 152, 4-[6-(1H-indol-5-yl)-4-morpholin-4-yl-1H-pyrazolo[3,4-d]pyrimidin-1-yl]cyclohexanol] | 600 | 1130 | 2300 |
